Test results from patent publication US8293269B2, “Compositions for promoting sleep” (Taiyo Kagaku Co., Ltd., priority 2000, dated 2012).

Tested on: mice
Experiment: acute toxic test using mice
Assay type: in vivo
Settings: administered orally at 5 g/kg
Source text: The safety of the theanine used in the present invention is high. […] In addition, especially L-theanine is known as the main component of deliciousness (umami) of tea, and is also used as a food additive for the use of deliciousness, and there is no limitation in its amount according to the Japanese Food Sanitation Act. Moreover, contrary to the conventional medicament for ameliorating sleep disorders, since dependence on the theanine is not found at all, the sleep can be promoted safely and effectively by the use of the composition, food or medicament of the present invention, whereby moderating or ameliorating the sleep disorders.

CCNC(=O)CC[C@H](N)C(=O)O [theanine, γ-glutamylethylamide]
abnormality in the general state and body weight: no abnormality | death cases: no death cases
